Data published in PMC10251509, “Ultrafast Fragment Screening Using Photo-Hyperpolarized (CIDNP) NMR” (Journal of the American Chemical Society, 2023).
Where a SMILES comes first, the peptide text is derived from it.

Target: T1, PDZ2 domain of human tyrosine phosphatase 1E (hPTP1E) (Homo sapiens, UniProt Q12923)
T1 construct: the PDZ2 domain of human tyrosine phosphatase 1E (hPTP1E); polyhistidine (N); made in house; host or cells: Escherichia coli BL21 (DE3)
T1 sequence (Q12923 1368-1452 limits assumed): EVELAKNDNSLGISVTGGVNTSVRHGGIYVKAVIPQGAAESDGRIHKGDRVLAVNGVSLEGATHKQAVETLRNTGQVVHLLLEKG
Assay: [15N,1H]-HSQC chemical shift perturbation / titration of peptides with PDZ2 domain
Assay type: binding
Conditions: [15N,1H]-HSQC-based titration series, calculated by Titan
Description: To establish a proof of concept, we decided to design and study peptides that bind to the PDZ2 domain of human tyrosine phosphatase comprising a tryptophane at the N-terminus of the peptides for detection by photo-CIDNP since tryptophane is known to be well polarized in the presence of fluorescein.[10],[25] The positive and negative control peptides (i.e., WVSAV and WEKLQT, respectively) were then checked in their binding capacity using [^15N,^1H]-HSQC experiments (Figure 2A,C).
Figure 2 Peptide binding studies of peptides to the PDZ2 domain of the human tyrosine phosphatase by standard chemical shift perturbation 2D NMR experiments and photo-CIDNP 1D ^1H NMR. (A) and (C) 2D [^15N,^1H]-HSQC spectra of the ^15N-labeled PDZ2 domain in the absence (black) and presence (green) of the peptide WVSAV (A) or WEKLQT (C), the experiments were recorded each within ca. 30 min. Photo-CIDNP ^1H 1D NMR spectra of the tryptophane aromatic resonances of (B) WVSAV and (D) WEKLQT in the absence (black lines) and presence (green lines) of the PDZ2 domain of the human tyrosine phosphatase, the experiments were recorded each within ca. 5 s. All of the 1D NMR spectra are single-scan experiments and were recorded with 100 μM peptide, ±100 μM PDZ2 domain at 298 K. The hyperpolarization was triggered by 4 s of light irradiation (450 nm, 1 W) in the presence of 25 μM fluorescein in photo-CIDNP buffer. […]

CC(C)[C@H](NC(=O)[C@H](C)NC(=O)[C@H](CO)NC(=O)[C@@H](NC(=O)[C@@H](N)Cc1c[nH]c2ccccc12)C(C)C)C(=O)O [WVSAV] (H-WVSAV-OH)
Kd: 111 ± 3.3 µM
